Columns and labels:
[1] = tested on: Podophyllum hexandrum zygotic embryos; assay: Germination of excised zygotic embryos cultured on different media supplemented with Gibberellic acid; conditions: 2.5 μM Gibberellic acid in different media (B5, MS, WPM); excised zygotic embryos of different regimes
Method: (§1) To describe in detail, the method comprises collection of mature pods of P. hexandrum Royle from their natural habitats in the Western Himalayas at an altitude ranging from 2700 m-3500 m above mean sea level during the last week of August and first week of September. Immediately after collection, the seeds were separated from the pulp. Prior to disinfection with 0.1% Bavistin and streptomycin sulphate (0.1%) for 15 minutes, followed by a thorough washing of seeds. After a 1 minute dip in 70% alcohol and surface sterilization in 0.1% mercuric chloride for 7 minutes, all traces of mercuric chloride were finally washed off by 4-5 rinses in sterile distilled water. The surface sterilized seeds were then dissected by a sharp excision with a scalpel blade at the base of the microplyar lobe and embryos were carefully squeezed out of their micropylar groove. The embryos were cultured on B-5 (Gamborg et al., 1968) medium supplemented with 3% sucrose of pH 5.8 adjusted with 1N KOH and HCl prior to the addition of agar (0.8%) and were finally sterilized at […] for 20 minutes. All the cultures were maintained in this medium for one week at 25±2° C. in dark for embryo germination. […]

[2] = tested on: Podophyllum hexandrum emblings; assay: True leaf emergence after embling development and field transfer; conditions: media supplemented with 2.5 μM Gibberellic acid; after 12 weeks of field transfer
Method: as §1

C=C1C[C@]23C[C@@]1(O)CC[C@H]2[C@@]12C=C[C@H](O)[C@@](C)(C(=O)O1)[C@H]2[C@@H]3C(=O)O [Gibberellic acid]
embryo germination [1]: Germination was evoked in all the media | true leaf emergence [2]: no true leaf emergence was recorded

Source: patent publication US20030148518A1, “Method for mass propogation of podophyllum hexandrum royle using embryo culture technique” (priority 2001, published 2003)
